Holding throughout (type): cell-based
Assay [1] relates to HTT mRNA. In words: Splicing RT-qPCR assay (THP), Table 2A. The following applies: Table 2A (THP); for AC50: AJ mRNA increase, read-out: HTT AJ (increase in alternative junction mRNA, AC50); for IC50: CJ mRNA decrease, read-out: HTT CJ (decrease in canonical junction mRNA, IC50).
The test system of assay [2] is MYB mRNA. Briefly: Splicing RT-qPCR assay (THP), Table 2A. Particulars: Table 2A (THP); for AC50: AJ mRNA increase, read-out: MYB AJ (increase in alternative junction mRNA, AC50); for IC50: CJ mRNA decrease, read-out: MYB CJ (decrease in canonical junction mRNA, IC50). Background: In qPCR the cycle at which signal appears reflects the starting amount.
In assay [3] the test system is HTT mRNA. In words: Gene panel canonical junction qPCR assay, decrease in CJ mRNA, Table 3. The following applies: decrease in canonical junction (CJ) mRNA, gene panel qPCR, Table 3. How it is done:
(§1) Compounds described herein were used to modulate RNA transcript abundance in cells. The expression of a target mRNA was measured by detecting the formation of an exon-exon junction in the canonical transcript (CJ). A compound mediated exon-inclusion event was detected by observing an increase in formation of a new junction with an alternative exon (AJ). Real-time qPCR assays were used to detect these splicing switches and interrogate the potency of various compounds towards different target genes. A high-throughput real time quantitative PCR (RT-qPCR) assay was developed to measure these two isoforms of the mRNA (CJ and AJ) for exemplary genes, such as HTT, SMN2, and MYB, together with a control housekeeping gene, GAPDH or GUSB or PPIA, used for normalization. Briefly, the A673 or K562 cell line was treated with various compounds described herein (e.g., compounds of Formula (I)). After treatment, the levels of the HTT, MYB, or SMN2 mRNA targets were determined from each sample of cell lysate by cDNA synthesis followed by qPCR.
(§2) The A673 cell line was cultured in DMEM with 10% FBS. Cells were diluted with full growth media and plated in a 96-well plate (15,000 cells in 100 ul media per well). The plate was incubated at 37° C. with 5% CO2 for 24 hours to allow cells to adhere. An 11-point 3-fold serial dilution of the compounds was made in DMSO then diluted in media in an intermediate plate. Compounds were transferred from the intermediate plate to the cell plate with the top dose at a final concentration of 10 uM in the well. Final DMSO concentration was kept at or below 0.25%. The cell plate was returned to the incubator at 37° C. with 5% CO2 for an additional 24 hours.
(§3) The K562 cell line was cultured in IMDM with 10% FBS. For K562, cells were diluted with full growth media and plated in either a 96-well plate (50,000 cells in 50 uL media per well) or a 384-well plate (8,000-40,000 cells in 45 uL media per well). An 11-point 3-fold serial dilution of the compounds were made in DMSO then diluted in media in an intermediate plate. Compound was transferred from the intermediate plate to the cell plate with the top dose at a final concentration of 10 uM in the well. Final DMSO concentration was kept at or below 0.25%. Final volume was 100 uL for 96-well plate and 50 uL for 384-well plate. The cell plate was then placed in an incubator at 37° C. with 5% CO2 for 24 hours.
(§4) The data analysis was performed by first determining the ΔCt vs the housekeeper gene. This ΔCt was then normalized against the DMSO control (ΔΔCt) and converted to RQ (relative quantification) using the 2^(−ΔΔCt) equation. The RQ were then converted to a percentage response by arbitrarily setting an assay window of 3.5 and 4.0 ΔCt for HTT-CJ and MYB-CJ respectively and an assay window of 9 and 3 ΔCt for HTT-AJ and MYB-AJ in 96 well format (50,000 K562 cells/well and 15,000 A673 cells per well) and an assay window of 3 and 4 ΔCt for HTT-CJ and MYB-CJ respectively and an assay window of 5 and 3 ΔCt for HTT-AJ and MYB-AJ respectively in 384 well format (8,000 K562 cells/well example). […] The percentage response was then fitted to the 4 parametric logistic equation to evaluate the concentration dependence of compound treatment. The increase in AJ mRNA is reported as AC50 (compound concentration having 50% response in AJ increase) while the decrease in CJ mRNA levels is reported as IC50 (compound concentration having 50% response in CJ decrease).
(§5) Additional studies were carried out for a larger panel of genes using the protocol provided above. The junction between flanking upstream and downstream exons was used to design canonical junction qPCR assays. At least one of the forward primer, reverse primer or the CY5-labeled 5′ nuclease probe (with 3′ quencher such as ZEN/Iowa Black FQ) was designed to overlap with the exon junction to capture the CJ mRNA transcript. […]

In assay [4] the test system is MYB mRNA. Described as above. The following applies: decrease in canonical junction (CJ) mRNA, gene panel qPCR, Table 3. How it is done:
as §1, §2, §3, §4, §5

Assay [5] has as its system SH-SY5Y (human neuroblastoma) cells. In words: Cell viability, Cell Titer Glo 2.0 assay. The following applies: read-out: Viability SHSY5Y.3 GI50. As to the method:
Compounds described herein were screened for toxicity in K562 (human chronic myelogenous leukemia) and SH-SY5Y (human neuroblastoma) cells using a Cell Titer Glo 2.0 assay.
• Promega CellTiter-Glo® 2.0 Cell Viability Assay (cat #G9241) • Corning 384-well TC-treated microplates (cat #3570)
Cells were plated at 500 cells/well (K562 cells) in 45 μL of IMDM supplemented with 10% FBS in a 384-well opaque plate. Wells containing only medium were used as a blank control. Test compounds (e.g., compounds of Formula (I) or (II) were first serially diluted in DMSO then diluted 1:100 with IMDM+10% FBS. The final concentration of DMSO was 0.1% in each well. The cells were incubated for 72 hours at 37° C. and 5% CO2 before assaying with Cell Titer Glo 2.0 reagent.

Twelve compounds from patent US20260285853A1, “COMPOUNDS AND METHODS FOR MODULATING SPLICING” (REMIX THERAPEUTICS INC., priority 2023, published 2026) can be followed below.

Usually AC50 stands for the concentration at which the activity in the assay is half-maximal. For orientation: IC50 means the concentration that inhibits the measured activity by half. As a reminder, the GI50 is the concentration at which growth is held to half of that of the control.

On to `Cc1cn2cc(NC(=O)c3ccc(N4CC[C@H]5CNCC[C@H]54)c4cn(C)nc34)nc2c(C)n1` (stereo in doubt) [Compound 502], for which the AC50 in assay [1] and in assay [2] was 0.1 to 1 µM in each case. Further, the IC50 in assay [1], in assay [2], in assay [3] and in assay [4] was 0.1 to 1 µM each time. Besides, in assay [5], the GI50 was 0.1 to 1 µM.

`Cc1cn2cc(NC(=O)c3ncc(N4CCC(NC5CC5)CC4)c4cn(C)nc34)nc2c(C)n1` [Compound 264, 4-[4-(cyclopropylamino)-1-piperidyl]-N-(6,8-dimethylimidazo[1,2-a]pyrazin-2-yl)-2-methyl-pyrazolo[3,4-c]pyridine-7-carboxamide]: the AC50 in assay [1] and in assay [2] was > 10 µM each time. The IC50 in assay [1] and in assay [2] was > 10 µM throughout.

Turning to `Cc1cn2cc(NC(=O)c3ccc(N4CCNCC4)c4cn(C)nc34)cc(Br)c2n1` [Compound 265, N-(8-bromo-2-methyl-imidazo[1,2-a]-pyridin-6-yl)-2-methyl-4-piperazin-1-yl-indazole-7-carboxamide], in assay [5], the GI50 lay within 1 to 10 µM.

As for `CCNC1CCN(c2cc(F)c(C(=O)Nc3cn4c(N)c(C)nc4c(F)c3OC)c3nn(C)cc23)CC1` [Compound 310, N-(3-amino-8-fluoro-7-methoxy-2-methyl-imidazo[1,2-a]pyridin-6-yl)-4-[4-(ethylamino)-1-piperidyl]-6-fluoro-2-methyl-indazole-7-carboxamide], the AC50 in assay [1] and in assay [2] was > 10 µM throughout. The IC50 in assay [1], in assay [2], in assay [3] and in assay [4] was > 10 µM in each case. Moreover, the GI50 in assay [5] is > 10 µM.

`CCNC1CCN(c2ccc(C(=O)Nc3cn4cc(CC)nc(C)c4n3)c3nn(C)cc23)CC1` [Compound 311, N-(6-ethyl-8-methylimidazo [1,2-a]pyrazin-2-yl)-4-(4-(ethylamino)piperidin-1-yl)-2-methyl-2H-indazole-7-carboxamide 2,2,2-trifluoroacetate]: the AC50 in assay [1] and in assay [2] was > 10 µM in each case. Moreover, the IC50 in assay [1], in assay [2], in assay [3] and in assay [4] was > 10 µM throughout. For the same compound, the GI50 in assay [5] was > 10 µM.

Consider `CCNC1CCN(c2ccc(C(=O)Nc3cn4cc(C)nc(C5CC5)c4n3)c3nn(C)cc23)CC1` [Compound 312, N-(8-cyclopropyl-6-methyl-imidazo[1,2-a]pyrazin-2-yl)-4-[4-(ethylamino)-1-piperidyl]-2-methyl-indazole-7-carboxamide], for which the AC50 in assay [1] and in assay [2] was 1 to 10 µM in each case. Moreover, the IC50 in assay [1], in assay [2], in assay [3] and in assay [4] was 1 to 10 µM each time. Also, the GI50 in assay [5] lay in the range of 1 to 10 µM.

As for `CCNC1CCN(c2ccc(C(=O)Nc3cc(Oc4ccccc4Cl)c4nc(C)cn4c3)c3nn(C)cc23)CC1` [Compound 313, N-[8-(2-chlorophenoxy)-2-methylimidazo-[1,2-a]pyridin-6-yl]-4-[4-(ethylamino)-1-piperidyl]-2-methyl-indazole-7-carboxamide], the AC50 is > 10 µM in assay [1] and 1 to 10 µM in assay [2]. Moreover, the IC50 in assay [1], in assay [2], in assay [3] and in assay [4] was > 10 µM in each case. The GI50 in assay [5] lay within 1 to 10 µM.

Regarding `CCNC1CCN(c2ccc(C(=O)Nc3cc(Oc4cccc(Cl)c4)c4nc(C)cn4c3)c3nn(C)cc23)CC1` [Compound 314, N-[8-(3-chlorophenoxy)-2-methylimidazo-[1,2-a]pyridin-6-yl]-4-[4-(ethylamino)-1-piperidyl]-2-methyl-indazole-7-carboxamide], the AC50 in assay [1] is 1 to 10 µM; in assay [2], < 0.1 µM. In addition, the IC50 lay in the range of 1 to 10 µM in assay [1], 0.1 to 1 µM in assay [2], 1 to 10 µM in assay [3] and 0.1 to 1 µM in assay [4]. For the same compound, the GI50 in assay [5] is 0.1 to 1 µM.

In the case of `CCNC1CCN(c2ccc(C(=O)Nc3cc(Oc4ccccc4C#N)c4nc(C)cn4c3)c3nn(C)cc23)CC1` [Compound 315, N-[8-(2-cyano-phenoxy)-2-methyl-imidazo[1,2-a]pyridin-6-yl]-4-[4-(ethylamino)-1-piperidyl]-2-methyl-indazole-7-carboxamide], the half-maximal activity concentration (AC50) in assay [1] was > 10 µM; in assay [2], 1 to 10 µM. The half-inhibitory concentration (IC50) in assay [1], in assay [2], in assay [3] and in assay [4] was > 10 µM each time. Also, the GI50 in assay [5] lay within 1 to 10 µM.

On to `CCNC1CCN(c2ccc(C(=O)Nc3cc(Oc4ccccc4C)c4nc(C)cn4c3)c3nn(C)cc23)CC1` [Compound 316, 4-[4-(ethylamino)-1-piperidyl]-2-methyl-N-[2-methyl-8-(2-methylphenoxy)imidazo[1,2-a]pyridin-6-yl]indazole-7-carboxamide], for which the AC50 in assay [1] and in assay [2] was > 10 µM each time. Further, the IC50 in assay [1] is > 10 µM; in assay [2], 1 to 10 µM; in assay [3], > 10 µM; in assay [4], 1 to 10 µM. Further, the GI50 in assay [5] is 1 to 10 µM.

Regarding `CCNC1CCN(c2ccc(C(=O)Nc3cc(C(N)=O)c4nc(C)cn4c3)c3nn(C)cc23)CC1` [Compound 317, N-(8-carbamoyl-2-methylimidazo[1,2-a]pyridin-6-yl)-4-(4-(ethylamino)piperidin-1-yl)-2-methyl-2H-indazole-7-carboxamide 2,2,2-trifluoroacetate], the AC50 in assay [1] and in assay [2] was > 10 µM in each case. The IC50 in assay [1], in assay [2], in assay [3] and in assay [4] was > 10 µM throughout. The GI50 in assay [5] is > 10 µM.

For the compound `CCNC1CCN(c2ccc(C(=O)Nc3cc(C(=O)O)c4nc(C)cn4c3)c3nn(C)cc23)CC1` [Compound 318, 6-[[4-[4-(ethylamino)-1-piperidyl]-2-methyl-indazole-7-carbonyl]amino]-2-methyl-imidazo[1,2-a]pyridine-8-carboxylic acid 2,2,2-trifluoroacetic acid], the AC50 in assay [1] and in assay [2] was > 10 µM each time. For the same compound, the IC50 in assay [1], in assay [2], in assay [3] and in assay [4] was > 10 µM throughout. In addition, the GI50 in assay [5] is > 10 µM.
